Reference: PMC12040169 (PLOS Biology, 2025)

Assay: in vitro
Conditions: human, hela cells

Compound	viability at 28.5 h, 10 µM (% viability) [%]	other results
Cc1[nH]c2ccccc2c1/C=N/NC(=O)C1COc2ccccc2O1 (centres unmarked) [CBK261482]	90.9	–
Cc1ccc(N2C(=O)c3ccc(C(=O)c4ccc(C(=O)O)cc4)cc3C2=O)cc1 [CBK287164]	93.5	–
O=C(CSc1nnc(-c2ccncc2)o1)Nc1ccccc1 [CBK287586]	91.3	–
CCCC/C=C/c1nccnc1NCc1ccc2c(c1)OCO2 [CBK037304]	98.1	–
CCOc1ccc(Cl)cc1CN(C)C(=O)NC(C)CN1CCOCC1 (centres unmarked) [CBK307170]	92.4	–
Cc1ccc(S(=O)(=O)N2CCC3(CC2)OCCO3)cc1Cl [CBK043731]	97.1	–
Cc1ccccc1-n1nc(C)c(CN(C)CC2CCN(C)C2)c1C (centres unmarked) [CBK283035]	82.6	–
Cc1cc(CN2CCCC2)cc(C)c1O [CBK028736C]	96.3	–
O=C(COc1ccccc1[N+](=O)[O-])Nc1cc(-c2nc3cc(Cl)ccc3o2)ccc1Cl [CBK268639]	116	–
CN(C)C(=O)Oc1ccc2[nH]c3c(c2c1)CCNC31CCN(CCOc2ccccc2)C1 (centres unmarked) [CBK107679]	–	viability at 28.5 h, 10 µM: 95.1%
C=CCn1c(SCC(=O)Nc2ccc(OC)cc2)nnc1-c1ccncc1 [CBK126824]	88.9	–
Cc1nn(C)c(C)c1S(=O)(=O)n1ccn(-c2ccc(N(C)C)cc2)c1=O [CBK106610]	93	–
COc1cccc2ncn(CCCn3ccnn3)c(=O)c12 [CBK306650]	103	–
COc1ccc(-c2nn(CCC(=O)O)cc2/C=C2\SC(=S)NC2=O)cc1OC [CBK265318]	108	–
CC(=O)NC(C)(COc1nonc1C)COc1nonc1C [CBK265955]	90.3	–
CCC(=O)N1CCC2(CC1)Nc1ccccc1-n1cccc12 [CBK283488]	108	–
OC1(Cn2cnc3ccccc32)CCN(Cc2ccc(F)cc2)CC1 [CBK284661]	85.7	–
COc1cccc(NC(=O)c2ccc(NC(=O)CCCC(=O)O)cc2)c1 [CBK287137]	83.7	–
CN(CC1(C)COC1)C(=O)c1cn2cc(Cl)ccc2n1 [CBK281721]	109	–
COc1ccc(/C=C/C(=O)O)cc1S(=O)(=O)N1CCCCCC1 [CBK263565]	87.8	–
NNC(=O)c1cc(O)n[nH]1 [CBK262669]	106	–
FC(F)(F)c1cc(-c2cn3ccnc3c(N3CCOCC3)n2)cc(C(F)(F)F)c1 [CBK066396]	93.4	–
CCn1nc2c(C)cc3cc(OC)ccc3n2c1=O [CBK283823]	74.6	–

Compound	viability at 28.5 h, 10 µM (% viability) [%]	other results
COc1ccc(/C=N/NC(=O)c2cc[nH]n2)cc1COc1ccc(Cl)cc1Cl [CBK263708]	90.9	–
O=C(Cc1ccccc1)N1CCN(Cc2ccccn2)CC1 [CBK263039]	88.6	–
Fc1cccc(-c2nc3c(s2)CN(C2CCOCC2)CC3)c1 [CBK281647]	87	–
c1ccc(CSc2nnc(COc3cccc4ccccc34)n2Cc2ccccc2)cc1 [CBK267215]	116	–
Cc1cc(Br)c(NC(=O)COc2ccc(/C=C(\C#N)C(N)=S)cc2)cc1C [CBK269014]	97.5	–
Cc1cccnc1C(NC(=O)C1CCN(CCCN2C(=O)CC3CCCCC3C2=O)CC1)c1ccc(F)cc1 (centres unmarked) [CBK147910]	91.2	–
C#CC1(OC(=O)CC)CCN(CCCC(=O)c2ccc(F)cc2)CC1 [CBK025277C]	108	–
C=CCOc1nc2c(=O)[nH]c(NC(=O)C(C)C)nc2n1[C@H]1C[C@@H](O)[C@@H](CO)O1 [CBK201216]	100	–
Cc1cc(C)cc(CC(C)Cc2nc3ccccc3[nH]2)c1 (centres unmarked) [CBK262432]	92.3	–
CC(C)(C)c1nsc(NC2CCCCCC2)n1 [CBK075061]	96.6	–
Cc1ccc(O)c(Nc2ncnc3ccc(Br)cc23)c1 [CBK269028C]	98.3	–
O=C1N=C(NC2CCCCCC2)S[C@@H]1CC1CCCCC1 [CBK070723]	95.8	–
CCCCc1c(C(=O)O)cc(OC)cc1C(=O)O [CBK217866]	93.5	–
O=C(Cn1cc(-c2ccc(CN3CCCCC3)cc2)nn1)NCc1ccc(OC(F)F)cc1 [CBK167514]	96	–
COc1ccc(CCNC(=O)C2CCCN(S(=O)(=O)c3ccc4ccccc4c3)C2)cc1 (centres unmarked) [CBK269601]	101	–
Cc1ccc(NC(=O)c2nc(-c3ccc(C(=O)N4CCOCC4)cc3)cnc2N)c(O)c1 [CBK149152]	44.3	–
Cc1ccn2cc(CNC(=O)N(C)CCc3scnc3C)nc2c1 [CBK307379]	87.5	–
N#Cc1nc(=O)[nH]cc1N [CBK021411]	90.8	–
O=C(CSc1nnc(-c2cccnc2)n1Cc1ccccc1)NCc1ccccc1 [CBK111647]	95.7	–
Cc1cccc2c3c([nH]c12)CCN(C(=O)C(C)N1CCOCC1)C3 (centres unmarked) [CBK281600]	89.2	–
O=C(NCCc1ccc(O)cc1)c1ccc(-c2ccc(OC(F)(F)F)cc2)nc1 [CBK156224]	95.8	–
C=CCn1c(Cc2csc(NC(=O)c3cccc(Cl)c3)n2)n[nH]c1=S [CBK295314]	98.3	–
COc1cc(C(C)=O)ccc1OCCCCN1CCOCC1 [CBK269713C]	98.2	–

Compound	viability at 28.5 h, 10 µM (% viability) [%]	other results
O=C(Cc1ccc(F)cc1)N1CCCC(c2nccnc2-c2cccc(C(F)(F)F)c2)C1 (centres unmarked) [CBK286210]	99.8	–
NC1CCN(C(=O)Cn2ccc3ccnc(-c4cccs4)c32)CC1 [CBK284750]	85.7	–
CC(=O)c1c(C)nn(CCC(=O)Nc2ccc(Cl)c(Cl)c2)c1C [CBK269829]	99.3	–
CC(CCN(C)CCN(C)C)c1ccccc1 (centres unmarked) [CBK261871]	87.6	–
CCOC(=O)c1ccc(NC(=S)NC(=O)c2ccc(C)c(C)c2)cc1 [CBK264004]	89.2	–
COc1ccc(C2c3cc(OC)c(OC)cc3CC(=O)N2c2cccc(C(=O)O)c2)cc1OC (centres unmarked) [CBK296118]	94.1	–
O=C(Nc1ccc(Cl)cc1)c1ccc(N2CCN(Cc3ccccc3)CC2)c([N+](=O)[O-])c1 [CBK264422]	103	–
O=C(Cn1nc(-c2ccco2)ccc1=O)Nc1ccccn1 [CBK287985]	87.4	–
CCOc1ccc(Oc2nc(N(C)C)nc(N3CCOCC3)n2)nn1 [CBK269585]	104	–
O=C(CC1S\C(=N/N=C/C=C/c2ccccc2)N=C1O)Nc1ccc(C(=O)O)cc1 (centres unmarked) [CBK263711]	101	–
CC(=O)Nc1ccc(-c2ccc3n(c2=O)C[C@H]2C[C@@H]3CN(C(=O)C3CCCCC3)C2)cc1 [CBK289188]	84.6	–
CCC(=O)N1CCN(CCCC(=O)c2ccc(F)cc2)CC1 [CBK025017C]	108	–
Clc1ccc(OCC2CCN(Cc3c[nH]cn3)CC2)cc1 [CBK281543]	82.7	–
CCCOc1nccnc1N1CCNCC1 [CBK001839G]	82.4	–
O=C(CSCc1ccc(Cl)cc1Cl)Nc1nccs1 [CBK131921]	103	–
CC(C)N1CCc2c(sc3nc(SCc4ccc(Cl)cc4)n(Cc4ccccc4)c(=O)c23)C1 [CBK263745]	84.4	–
COc1ccccc1-c1ccc(CC2(C(=O)NCc3cccc(F)c3)CCOCC2)cc1 [CBK286521]	92.6	–
CC(=O)C(Sc1nc(N2CCOCC2)nc(N2CCOCC2)n1)C(=O)Nc1ccccc1 (centres unmarked) [CBK266643]	93	–
O=C(O)CCCNC(=O)C(O)(c1ccccc1)c1ccccc1 [CBK269156]	–	viability at 28.5 h, 10 µM (% viability, bulk resorufin, single well): 95.5%
Cc1ccc(Nc2nc(N)nc(CN3CCCC3)n2)cc1 [CBK270163]	97.7	–
CCCC(C(=O)O)C(C)CC(=O)Nc1ccccc1Cl (centres unmarked) [CBK286927]	99.1	–
CN(C)c1ccccc1-c1cc(NCCc2ccccn2)ncn1 [CBK037189]	102	–
Cc1nc2ccc(C(=O)NC(C)Cc3cccs3)cc2[nH]1 (centres unmarked) [CBK282487]	86.8	–

Compound	viability at 28.5 h, 10 µM (% viability) [%]	other results
Cc1nn(C)cc1-c1cncn1CCOc1ccc(Cl)cc1 [CBK281508]	87.5	–
O=C(NCC1(c2cccc(Br)c2)CCOCC1)C1CC(O)CN1 (centres unmarked) [CBK304257]	95.9	–
O=C(OCCC1SC(NC2CC3C=CC2C3)=NC1=O)c1c(F)cccc1Cl (centres unmarked) [CBK200061T]	88.7	–
CC(=O)N1CCN(C(C(=O)O)c2cn(Cc3ccccc3)c3ccc(C(=O)O)cc23)CC1 (centres unmarked) [CBK286648]	79.6	–
CC(Sc1nc(N)cc(=O)[nH]1)C(=O)Nc1ccc(S(N)(=O)=O)cc1 (centres unmarked) [CBK266191]	110	–
Nc1nnc(CCS(=O)(=O)c2ccc(Br)cc2)s1 [CBK026286]	109	–
Cn1cc(-c2ccc(C3CCCCN3Cc3ccnc4ccccc34)cn2)cn1 (centres unmarked) [CBK285672]	93.3	–
CO[C@@H]1CO[C@H]2[C@@H]1OC[C@@H]2NC(=O)Nc1cccc(C(F)(F)F)c1 [CBK289461]	112	–
Cc1cccc(CN(CCN)C(=O)NC2C[C@H]2c2ccccc2)n1 (some centres unmarked) [CBK046220C]	120	–
Cc1ccc(SC(C)C(=O)Nn2cnnc2)cc1 (centres unmarked) [CBK268570]	93.3	–
COc1ccc(-c2ccc3ccc(NC(=O)C(C)C)nc3n2)cc1C [CBK073665]	92.3	–
Brc1ccc(-c2ccnc3nc(-c4ccncc4)nn23)cc1 [CBK288623]	102	–
COCCCn1c(=O)[nH]c2ncc(-c3cnc(OC)nc3)nc21 [CBK064618]	92	–
CCOC(=O)C1CCN(S(=O)(=O)c2ccc(C(C)(C)C)cc2)CC1 [CBK051240]	83.5	–
CCCC(=O)Nc1c(F)cc(F)cc1OC1CCNCC1 [CBK045892T]	91.1	–
CCN1CCCC1CNC(=O)c1ccc(-c2ccc(OC)cc2)nc1N(C)C(C)=O (centres unmarked) [CBK076491]	98.3	–
CCN1CCCCC1CNC(=O)Cn1nc(C)c(C)c1C (centres unmarked) [CBK282208]	105	–
N#Cc1c(-c2ccccc2)noc1C/C=N/O [CBK007357]	87.7	–
O=C(C1=C(O)C(=O)N(c2ccc([N+](=O)[O-])cc2)C1c1ccccc1)c1ccccc1 (centres unmarked) [CBK263787]	94.4	–
COc1cc(/N=C(\N)Nc2nc(=O)cc(CSc3ccc(C)cc3)[nH]2)cc(OC)c1 [CBK265532]	83.4	–
